Source: patent US11884710B2, “Peptide compounds and methods of use in wound healing” (priority 2013, dated 2024)
Square brackets hold non-standard residues; d marks the D form. Peptide text beside a SMILES is read from it. PEG2 = NCCOCCOCCC(=O)O

Experiments:
[1] = test system: P. aeruginosa (ATCC 27853); experiment: Mouse model of Pseudomonas (bacterial) keratitis; assay type: in vivo; details: C57/BL6 mice; topical peptide 0.25 to 0.75 mg/ml; 48 hours post-infection
Procedure: A circular wound was created on the mouse cornea by removing the epithelium and infected with 10^5 colony forming units (CFU) of P. aeruginosa (ATCC® 27853™ (American Type Culture Collection, Manassas, Va.)). Infected wounds were treated with saline (0.9% sodium chloride, vehicle control) or saline containing indicated concentrations of peptide every 15 minutes for 2 hours, then every 30 minutes for 3 hours on the first day. Infected wounds were treated twice on the second day and once on the third day. Mice were killed at 48 hours post-infection, and CFU/eye were quantified. The means were plotted and are representative of 5 to 9 mice per group. Mann Whitney test was performed for each group as compared to the saline control group. *P=0.014. In compound names such as BCC02-5RMP used herein, “R” represents arginine, and “MP” represents a small PEG molecule as defined elsewhere herein (such as, for example but not by way of limitation, “AEEP”).
(§1) A circular wound was created on the mouse cornea by removing the epithelium, and the wound was infected with 10^5 CFU of P. aeruginosa (ATCC® 27853™ (American Type Culture Collection, Manassas, Va.)). Infected wounds were treated with saline or saline containing indicated concentrations (2, 5, 10, and 20 mg/ml) of peptide every 30 minutes for 6 hours on the first day. Infected wounds were treated twice on the second day and once on the third day. Mice were killed at 48 hours post-infection, and the CFU/eye were quantified. The means are plotted and are representative of 5 mice per group. Mann Whitney test was performed for each group as compared to the saline control group. *P=0.015 and **P=0.097.
as §1, with “representative of 4 to 5 mice” for “representative of 5 mice”, “control group.” for “control group. *P=0.015 and **P=0.097.”
as §1, with “group. **P=0.0079 by” for “group.”, “test” for “test was performed for each group”, “group.” for “group. *P=0.015 and **P=0.097.”
A circular wound (2 mm) was created on the mouse cornea by removing the epithelium and infecting the wound with 10^5 CFU of P. aeruginosa (ATCC® 27853™ (American Type Culture Collection, Manassas, Va.)). Infected wounds were treated with saline or saline containing indicated concentrations of peptide every 15 minutes for 2 hours, then every 30 minutes for 3 hours on the first day. […] Mice were killed at 48 hours post-infection, and the colony forming units per eye (CFU/eye) were quantified. […]

[2] = test system: Pseudomonas clinical isolate B64; experiment: BIOSCREEN C growth assay, peptide plus antibiotic combinations; assay type: cell-based, Pseudomonas aeruginosa
Procedure: FIGS. 28A and 28B show the effect of BCC002-5R-MP (SEQ ID NO:21) in combination with Cefotaxime on MIC using Pseudomonas clinical isolate B64. Cefotaxime (Cefo) and peptide combinations included a constant amount of Cefotaxime (2.81 μg/ml) with suboptimal amounts of peptide (0, 0.34, 1.01, and 3.04 μg/ml). […] FIG. 28B is a histogram showing Fractional area (FA), which is an indication of the MIC.
FIG. 29B is a histogram showing Fractional area (FA), which is an indication of the MIC.
FIGS. 30A and 30B show the effect of BCC02-5R-MP (SEQ ID NO:21) in combination with Levofloxacin (Levo) and peptide combinations included a constant amount of Levofloxacin (3.6 μg/ml) with suboptimal amounts of peptide (0, 0.34, 1.01, 3.04 μg/ml). […] FIG. 30B is a histogram showing Fractional area (FA), which is an indication of the MIC.
The peptide and antibiotics were set up in the wells of the microtiter plate at starting ratios of MIC equivalents of antibiotic:peptide at 3:1, 1:1, and 1:3. They were serially diluted to concentrations well below suboptimal/sublethal levels of the antibiotic and peptide. The organism was added (1×10^5 CFU/well), the BIOSCREEN C™ assay (Growth Systems USA, Piscataway, N.J.) was performed, and data was collected over 24 hours.

[3] = test system: release of TNF-α from LPS-stimulated RAW264.7 cells; experiment: LPS neutralization: TNF-α release from LPS-stimulated RAW264.7 cells; assay type: cell-based, mouse
Procedure: (§2) The well-characterized response of RAW264.7 macrophage cells was used to produce tumor necrosis-factor-alpha (TNF-α) in response to LPS to determine whether the peptides could dampen the release of this cytokine. […] Importantly, pre-treatment (3 hours prior to LPS addition) as well as post-treatment of the RAW264.7 cells (3 hours post LPS addition) with peptide dampened the cytokine release. […] The finding that the novel peptides bind and neutralize the effect of Pseudomonas LPS is of critical importance since this ensures that the novel therapeutic peptide compounds described herein will not only kill the bacteria, but will also neutralize the LPS endotoxin released by the bacteria which plays such an important role in the rapid progression of sepsis.
(§3) BCC01-5RMP (SEQ ID NO:23), BCC002-5RMP (SEQ ID NO:21), and BCC003-5RMP (SEQ ID NO:22) were tested for their ability to bind lipopolysaccharide (LPS) using the limulus amebocyte lysate method (LAL). […] There was no statistical difference in their ability to bind LPS using the LAL technique. The ability of the peptides to neutralize LPS was assessed by determining their ability to attenuate the release of tumor necrosis factor-alpha (TNF-α) from LPS-stimulated RAW264.7 cells (a mouse macrophage cell line). […] No significant differences were observed between the three peptides to neutralize LPS as measured by cytokine release. Peptides based on sequence 120-146 (SEQ ID NOS:28-31) also bind and neutralize Pseudomonas LPS.

P. aeruginosa ATCC 27853 = assay type: cell-based, Pseudomonas aeruginosa; details: Pseudomonas; inoculum 1×10^6 CFU/ml; 60 to 180 minute incubation
Procedure: (§4) In vitro bactericidal activity: The three peptide compounds BCC01-5RMP (SEQ ID NO:23), BCC002-5RMP (SEQ ID NO:21), and BCC003-5RMP (SEQ ID NO:22) were assayed for in vitro bactericidal activity against Pseudomonas aeruginosa, Escherichia coli, Salmonella typhimurium, and Acinetobacter baumannii. The starting inoculum for all experiments was 1×10^6 colony forming units (CFU)/ml. The CFU remaining at the end of 60 to 180 minute incubation was determined, and the data plotted as a log reduction in CFU/ml.
Table 4 further compares the activity of several other compounds, including the “5R” versions of BCC01, i.e., SEQ ID NO:20 (which comprises SEQ ID NO: 7 with five additional arginines), the “5R” version of BCC002 (i.e., SEQ ID NO:18, which comprises SEQ ID NO: 1 with five additional arginines), and the 5RMP versions of BCC01 (SEQ ID NO: 23) and BCC002 (SEQ ID NO: 21). The data generally indicate the superiority of BCC003-5RMP (SEQ ID NO:22) and BCC002-5RMP (SEQ ID NO: 21) and the superiority of the 5R or 5RMP versions of the peptide over the “AEEP only” peptide against P. aeruginosa.

Salmonella typhimurium = experiment: In vitro bactericidal activity against Salmonella typhimurium; assay type: cell-based; details: inoculum 1×10^6 CFU/ml, 60 to 180 minute incubation
Procedure: as §4

Pseudomonas LPS = experiment: LPS binding, Limulus Amebocyte Lysate (LAL) assay; details: LAL method
Procedure: as §2, §3

Acinetobacter baumannii = experiment: In vitro bactericidal activity against Acinetobacter baumannii; assay type: cell-based; details: inoculum 1×10^6 CFU/ml, 60 to 180 minute incubation
Procedure: as §4

Escherichia coli = experiment: In vitro bactericidal activity against Escherichia coli; assay type: cell-based; details: E. coli; inoculum 1×10^6 CFU/ml; 60 to 180 minute incubation
Procedure: as §4

In the case of `CC[C@H](C)[C@H](NC(=O)[C@H](CC(C)C)NC(=O)[C@H](C)NC(=O)CNC(=O)CNC(=O)[C@H](CO)NC(=O)[C@H](Cc1ccccc1)NC(=O)[C@H](Cc1c[nH]cn1)NC(=O)[C@H](CCCNC(=N)N)NC(=O)CNC(=O)[C@H](CCC(N)=O)NC(=O)[C@H](CC(N)=O)NC(=O)[C@H](CCCNC(=N)N)NC(=O)[C@H](CCCNC(=N)N)NC(=O)[C@H](CCCNC(=N)N)NC(=O)[C@H](CCCNC(=N)N)NC(=O)CCOCCOCCNC(=O)CCOCCOCCN)C(=O)N[C@@H](Cc1c[nH]cn1)C(=O)N[C@@H](C)C(=O)N[C@@H](CCCNC(=N)N)C(=O)N[C@@H](Cc1ccccc1)C(=O)N[C@H](C(=O)N[C@@H](CCSC)C(=O)N[C@H](C(=O)N[C@@H](C)C(=O)N[C@@H](C)C(=O)N[C@@H](CO)C(=O)N[C@@H](CS)C(=O)N[C@@H](Cc1ccccc1)C(=O)N[C@@H](CCC(N)=O)C(=O)N[C@@H](CCCNC(=N)N)C(=O)O)[C@@H](C)O)C(C)C` [BCC02-5RMP] (H-[PEG2][PEG2]RRRRNQGRHFSGGALIHARFVMTAASCFQR-OH; C-terminus assumed), the “CFU/eye, in words” value [1] is reported as “effectively killed all bacteria and cured the infection”, the “sensitivity of the bacterium to Cefotaxime with peptide, in words” value ([2]; 3.04 μg/ml of peptide with Cefotaxime 2.81 μg/ml) is reported as “now sensitive” and the “effect of peptide on the killing effect of Cefotaxime, in words” value ([2]; 0.34 and 1.0 μg/ml of peptide with Cefotaxime 2.81 μg/ml) is reported as “no statistical effect”. For the same compound, the “neutralization of LPS: attenuation of TNF-α release” value [3] was “attenuate the release of TNF-α”, the “in vitro bactericidal activity, in words” value (P. aeruginosa ATCC 27853) was “most active” and the “in vitro bactericidal activity, in words” value (Salmonella typhimurium) was “strong, but lesser activity”. The “binding of Pseudomonas LPS” value (Pseudomonas LPS) was “bound Pseudomonas LPS”, the “in vitro bactericidal activity, in words” value (Acinetobacter baumannii) was “most active” and the “in vitro bactericidal activity, in words” value (Escherichia coli) was “strong, but lesser activity”.
For `CC[C@H](C)[C@H](NC(=O)[C@H](CC(C)C)NC(=O)[C@H](C)NC(=O)CNC(=O)CNC(=O)[C@H](CS)NC(=O)[C@H](Cc1ccccc1)NC(=O)[C@H](Cc1c[nH]cn1)NC(=O)[C@H](CCCNC(=N)N)NC(=O)CNC(=O)[C@H](CCC(N)=O)NC(=O)[C@H](CC(N)=O)NC(=O)[C@H](CCCNC(=N)N)NC(=O)[C@H](CCCNC(=N)N)NC(=O)[C@H](CCCNC(=N)N)NC(=O)[C@H](CCCNC(=N)N)NC(=O)CCOCCOCCNC(=O)CCOCCOCCN)C(=O)N[C@@H](Cc1c[nH]cn1)C(=O)N[C@@H](C)C(=O)N[C@@H](CCCNC(=N)N)C(=O)N[C@@H](Cc1ccccc1)C(=O)N[C@H](C(=O)N[C@@H](CCSC)C(=O)N[C@H](C(=O)N[C@@H](C)C(=O)N[C@@H](C)C(=O)N[C@@H](CO)C(=O)N[C@@H](CO)C(=O)N[C@@H](Cc1ccccc1)C(=O)N[C@@H](CCC(N)=O)C(=O)N[C@@H](CCCNC(=N)N)C(=O)O)[C@@H](C)O)C(C)C` [BCC03-5RMP] (H-[PEG2][PEG2]RRRRNQGRHFCGGALIHARFVMTAASSFQR-OH), the “neutralization of LPS: attenuation of TNF-α release” value [3] was “attenuate the release of TNF-α”, the “in vitro bactericidal activity, in words” value (P. aeruginosa ATCC 27853) was “most active” and the “in vitro bactericidal activity, in words” value (Salmonella typhimurium) was “strong, but lesser activity”. For the same compound, the “binding of Pseudomonas LPS” value (Pseudomonas LPS) was “bound Pseudomonas LPS”, the “in vitro bactericidal activity, in words” value (Acinetobacter baumannii) was “most active” and the “in vitro bactericidal activity, in words” value (Escherichia coli) was “strong, but lesser activity”.
